The Kd is the constant that tells how readily two partners part at equilibrium. Lower therefore signals higher affinity. Usually pKa stands for the negative logarithm of the acid dissociation constant. The low end stands for a stronger acid or weaker base, the high end for a weaker acid or stronger base.

For one series, the target named is T1, BRD4 (2) (Homo sapiens, UniProt O60885).
T1 construct: purchased Discoverx (BROMOscan service)
Nature of the series: BROMOscan assay (DiscoverX) BRD4(2). The series is classed as binding. How it is done:
(§1) BROMOscan™ Assay (ex Discoverx)
(§2) The ability of the compounds to bind to a bromodomain protein was tested by Discoverx using their proprietory ligand binding site-directed competition assay. Supplied compounds were anonymised.
(§3) The BROMOscan assay is based on the principle that test compounds that bind the bromodomain protein prevent its binding to an immobilized ligand thus reducing the amount of protein captured on a solid support. […] Screening “hits” are identified by measuring the amount of bromodomain captured in test versus control samples by using a quantitative, precise and ultra-sensitive qPCR method that detects the associated DNA label. In a similar manner, dissociation constants (Kds) for test compound-bromodomain interactions are calculated by measuring the amount of bromodomain protein captured on the solid support as a function of the test compound concentration.

Another series addresses T2, BRD2 (1) (Homo sapiens, UniProt P25440).
T2 construct: purchased Discoverx (BROMOscan service)
Nature of the series: BROMOscan assay (DiscoverX) BRD2(1). Type of series: binding. How it is done: as §1, §2, §3

For the next series, the target named is T3, BRD2 (2) (Homo sapiens, UniProt P25440).
T3 construct: purchased Discoverx (BROMOscan service)
T3 sequence (P25440 344-453 limits assumed): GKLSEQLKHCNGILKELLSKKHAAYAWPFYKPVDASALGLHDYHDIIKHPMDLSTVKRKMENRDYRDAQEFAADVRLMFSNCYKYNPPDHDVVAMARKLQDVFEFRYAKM
Description: BROMOscan assay (DiscoverX) BRD2(2). Type of series: binding. How it is done:
as §1, §2, §3

The next series deals with T4, BRD3 (1) (Homo sapiens, UniProt Q15059).
T4 construct: purchased Discoverx (BROMOscan service)
T4 sequence (Q15059 34-140 limits assumed): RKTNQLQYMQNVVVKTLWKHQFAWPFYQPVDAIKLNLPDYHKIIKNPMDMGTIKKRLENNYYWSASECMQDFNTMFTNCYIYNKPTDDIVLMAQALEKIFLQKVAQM
Description: BROMOscan assay (DiscoverX) BRD3(1). Type of series: binding. How it is done: as §1, §2, §3

A further series has as its target T5, BRD3 (2) (Homo sapiens, UniProt Q15059).
T5 construct: purchased Discoverx (BROMOscan service)
Nature of the series: BROMOscan assay (DiscoverX) BRD3(2). The series is classed as binding. The protocol: as §1, §2, §3

Another series deals with T6, BRDT (1) (Homo sapiens, UniProt Q58F21).
T6 construct: purchased Discoverx (BROMOscan service)
Nature of the series: BROMOscan assay (DiscoverX) BRDT(1). Type of series: binding. The protocol: as §1, §2, §3

A further series addresses T7, BRDT (2) (Homo sapiens, UniProt Q58F21).
T7 construct: purchased Discoverx (BROMOscan service)
Description: BROMOscan assay (DiscoverX) BRDT(2). The series is classed as binding. The protocol:
as §1, §2, §3

In the next series the test system is MM1.S cells. Description: Anti-proliferative assay (AlamarBlue) in MM1.S cells. Type of series: cell-based. The conditions noted are these: Homo sapiens, 72 h, 3 days of culture, read-out: MM1.S Antiproliferative GI50/μM. How it is done: Anti-proliferative assay The anti-proliferative effect of the compounds was assessed by AlamarBlue assay in MM1.S cells which were originally derived from a multiple myeloma patient. This assay is based on Resazurin, a non-fluorescent indicator dye converted to bright red-fluorescent resorufin via the reduction reactions of metabolically active cells. The amount of fluorescence produced is proportional to the number of living cells. MM.1S cells are cultured in RPMI-1640 medium (Gibco®) plus 10% Fetal bovine serum (FBS) and 1 mM L-glutamine. 12-24 hours before compound dosing, 90 μL of cell suspension (18,750 cells) was seeded into 96-well microtiter plates (black, flat bottom). On the day of compound dosing, compounds were serially diluted 1:3 in 100% DMSO using columns 2-10 of a 96-well microtiter plate. Column 11 of compound serial plate contained only DMSO. All wells were then further diluted 1:30 in media. 10 μL of compound or DMSO alone in media was added to cell plates columns 2-11 in triplicate. In addition, 1 plate had 10 μL of media added and was developed using alamar blue. Plates developed on the day of compound addition were referred to as Day 0. Dosed plates were cultured 3 days under normal conditions (RPMI-1640 plus 10% FBS and 1 mM L-glutamine) After 3 days of culture, dosed plates are developed using either MTS or alamar blue. For each compound concentration, % net growth was calculated by
(Day 3 dosed well-Average Day 0)/(Average Day 3 DMSO control-Average Day 0). The GI50, the concentration that causes 50% of growth inhibition, of each compound was calculated using the % net growth as defined by National Cancer Institute (NCI).

In another series the test system is cMyc protein. Nature of the series: Assay monitoring cMyc protein modulation in MM1.S cells (flow cytometry). The conditions noted are these: Homo sapiens, c-Myc protein level, 16 hours treatment, read-out: MM1.S “MoA” IC50/μM. The series is classed as cell-based. How it is done:
Assay Monitoring cMyc Protein Modulation
Multiple myeloma MM1.S cells were cultured in RPMI-1640 medium containing 10% FBS and 1% L-glutamine under standardized conditions in a humidified incubator (37° C. and 5% CO2). The impact of cMyc protein modulation induced by bromodomain inhibitors was assessed by staining and quantifying c-Myc protein level after compound treatment using a flow cytometer Assay, carried out in 96-well plate format with 200K cells per well. Cells were treated with serially diluted compounds 16 hours before fixing with 2% paraformaldehyde (final concentration) for 10 minutes at 37° C. After being permeablized by ice cold 90% methanol at 4° C. for 30 min, cells were washed, blocked by buffer (0.5% FBS in phosphate-buffered saline (PBS) buffer) for 10 minutes at room temperature, and stained with cMyc antibody for 1 hour (Cell Signaling Technology®5605, 1:200 dilution). Cells were washed and stained by incubating with Alexa-488 conjugated anti-Rabbit IgG (Cell Signaling Technology®#4412, 1:1000 dilution) at RT for 30 minutes. After staining, cells were washed again and fixed with 2% paraformaldehyde in PBS and ready for analysis by BD FACSCalibur™ flow cytometer. Fluorescence geometric mean was calculated through FlowJo (TreeStar Inc), maximal inhibition signal was determined by control compound treatment at high dose across each plate, and minimal inhibition signal was determined by DMSO treatment. IC50 was calculated by fitting the dose-response data points which are normalized against max and min signals as percentage of inhibition using a standard 4-Parameter-Logistic nonlinear regression model.
For orientation: In flow cytometry, cells or beads pass a laser one at a time.

A further series deals with MV-4-11 cells. Nature of the series: MV-4-11 xenograft model. The series is classed as in vivo, mouse. The conditions noted are these: CB17 SCID mice, 10 mg/kg PO qd for 21 days, FIG. 5. How it is done:
Compound A was also investigated in a xenograft model as described below.
Female CB17 SCID mice aged 6 to 8 weeks were obtained from Charles River Laboratories (Wilmington, Mass.) and maintained under specific-pathogen-free conditions in an AAALAC (Association for Assessment and Accreditation of Laboratory Animal Care)—accredited facility. Irradiated food and autoclaved water were provided ad libitum.
MV-4-11 cells ([…]) were resuspended in 0.1 ml of medium without serum and Matrigel (Becton Dickinson) at a 1:1 ratio. Cells (10^7/mouse) were injected subcutaneouly into the right flank of mice. Tumors were allowed to grow until they reached an average volume of 200 mm^3 for efficacy and then the mice were randomized into groups of 8. Compound A was solubilized in 0.5% HPMC/0.1% Tween80 for dosing. For efficacy, either vehicle or Compound A was administered PO once a day (qd) for 21 days at 10 mg/kg (mpk). Body weight and tumour volume were measured twice a week for 21 days.

The target of series [1] is T8, BRD4 (1) (Homo sapiens, UniProt O60885). Description: BROMOscan assay (DiscoverX) BRD4(1). Type of series: binding. Set-up: purchased Discoverx (BROMOscan service). The protocol: as §1, §2, §3
Series [2] addresses T8, BRD4 (1). Nature of the series: Alpha-Screen assay, BRD4 BD1. Set-up: 6His-TEV-BRD4, amino acid residues 42-169, corresponding to the BD1 domain. Conditions: 6His-TEV-BRD4 residues 42-169 (BD1), H4K5,8,12,16(Ac)4-biotin peptide. The series is classed as binding. How it is done:
The ability of the compounds to bind to a bromodomain protein was tested in an AlphaScreen® assay. The assay is based on the interaction between Histidine-tagged bromodomain protein which can bind to Nickel-chelate donor beads, and a Biotinylated acetyl lysine peptide corresponding to a histone amino acid sequence, which can bind to streptavidin-conjugated acceptor beads. The protein-peptide interaction can be detected by light emission at 520-620 nm. In the presence of compounds which bind to BRD4 a lower signal is observed as the protein-peptide interaction is reduced. • 1. The assay was performed as follows: —Greiner BioOne (cat no. 784075) compound plates were used. Compounds were prepared using the Labcyte Echo Acoustic Dispenser with compounds in a final volume of 40 nl per well normalised to 0.5% (v/v) DMSO under final assay conditions. Compounds were tested in 12 point singlicate concentration response format. • 2. 4 μl of BRD4 protein (6His-TEV-BRD4, amino acid residues 42-169, corresponding to the BD1 domain) (final assay concentration=50 nM) per well was added using the Beckman Coulter BioRAPTR® Flying Reagent Dispensor Microfluidic Workstation. • 3. Incubated for 30 minutes at room temperature. • 4. Added 4 μl of acetyl lysine peptide (H4K5,8,12,16(Ac)4-biotin:(NH2-) YSGRG(K-Ac)GG(K-Ac)GLG(K-Ac)GGA(K-Ac)RHR(K-Biotin)(—COOH)) (final assay concentration=50 nM) per well using the Beckman Coulter BioRAPTR® Flying Reagent Dispensor Microfluidic Workstation. • 5. Incubated for 30 minutes at room temperature. • 6. Added 4 μl of Nickel & Streptavidin-bead solution pre-mixed (beads supplied by Perkin Elmer) per well using the BioRaptr as before (final assay concentration=4 μg/ml). Kept plates in the dark after addition. • 7. Incubated for 60 minutes at room temperature keeping the assay plate in the dark • 8. Plates were then read using the Perkin Elmer Envision plate reader, laser excitation at 680 nm and emission detected at 520-620 nm. • 9. Data was analysed using Genedata software and IC50 values calculated.
A general note: In Alpha technology, singlet oxygen from a donor bead excites a nearby acceptor bead.

Series [3] is described as follows: Hygroscopicity of co-crystal versus free base. Type of series: physicochemical.
Series [4] can be described thus: Stability under temperature and humidity conditions. The series is classed as physicochemical. Conditions: exposed to range of temperature and humidity conditions.

T5 sequence (Q15059 306-415 limits assumed): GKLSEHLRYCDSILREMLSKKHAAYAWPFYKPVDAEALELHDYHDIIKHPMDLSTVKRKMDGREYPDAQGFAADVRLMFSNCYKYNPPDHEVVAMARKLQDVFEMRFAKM
T2 sequence (P25440 74-180 limits assumed): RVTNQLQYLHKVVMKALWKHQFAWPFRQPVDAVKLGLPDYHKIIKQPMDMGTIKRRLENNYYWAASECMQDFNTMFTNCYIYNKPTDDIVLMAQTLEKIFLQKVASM

`COc1nnc2ccc(N3CCC(c4ccc(OCCN5CCN(C)C(=O)[C@H]5C)cc4)CC3)nn12` [Example 1, (R)-4-(2-(4-(1-(3-methoxy-[1,2,4]triazolo[4,3-b]pyridazin-6-yl)piperidin-4-yl)phenoxy)ethyl)-1,3-dimethylpiperazin-2-one]: the Kd on BRD4 (2) was found to be 0.13 µM; on BRD2 (1) it was 0.1 µM; on BRD2 (2), 0.28 µM; on BRD3 (1), 0.064 µM; on BRD3 (2), 0.43 µM; on BRDT (1), 0.095 µM. Besides, the Kd on BRDT (2) was determined as 0.45 µM; at BRD4 (1) [1], 0.047 µM. Moreover, in the series with MM1.S cells, the GI50 is 0.0049 µM. The IC50 amounted to 0.011 µM in the series on cMyc protein and 0.12 µM against BRD4 (1) [2]. Also, the “Tumour growth inhibition (tumour volume)” value in the series with MV-4-11 cells is on record as “Tumour Growth Inhibition”. In the series “physchem”, this molecule yielded a pKa of less than 1.
As for `COc1nnc2ccc(N3CCC(c4ccc(OCCCN5CCN(C)C(=O)[C@H]5C)cc4)CC3)nn12` [Example 3, (R)-4-(3-(4-(1-(3-methoxy-[1,2,4]triazolo[4,3-b]pyridazin-6-yl)piperidin-4-yl)phenoxy)propyl)-1,3-dimethylpiperazin-2-one], the equilibrium dissociation constant (Kd) at BRD4 (2) was determined as 0.34 µM; on BRD2 (1) it was 0.16 µM; at BRD2 (2) it was 0.53 µM; on BRD3 (1), 0.11 µM; at BRD3 (2), 0.67 µM; on BRDT (1) it was 0.093 µM. The Kd came to 0.99 µM on BRDT (2) and 0.11 µM on BRD4 (1) [1]. The GI50 with MM1.S cells was 0.0075 µM. The results for the IC50 with cMyc protein and against BRD4 (1) [2] were 0.025 µM and 0.3 µM, respectively.
As for `COc1nnc2ccc(N3CCC(c4ccc(OCCN5CCN(C)C(=O)[C@H]5C)cc4)CC3)nn12.O=C(O)c1ccc2cc(O)ccc2c1` [(R)-4-(2-(4-(1-(3-methoxy-[1,2,4]triazolo[4,3-b]pyridazin-6-yl)piperidin-4-yl)phenoxy)ethyl)-1,3-dimethylpiperazin-2-one:6-hydroxy-2-naphthoic acid (1:1) co-crystal], the “Hygroscopicity compared to Compound A free base” value in series [3] was “significantly less hydroscopic than Compound A free base”. The “Stability compared to Compound A free base” value in series [4] was “more stable than Compound A free base”.
Consider `COc1nnc2ccc(N3CCC(c4ccc(OCCCN5[C@H](C)CN(C(C)=O)C[C@@H]5C)cc4)CC3)nn12` [Example 4, 1-((3R,5S)-4-(3-(4-(1-(3-methoxy-[1,2,4]triazolo[4,3-b]pyridazin-6-yl)piperidin-4-yl)phenoxy)propyl)-3,5-dimethylpiperazin-1-yl)ethanone], for which the Kd was found to be 0.25 µM on BRD4 (2) and 0.057 µM on BRD4 (1) [1]. In the series with MM1.S cells, the GI50 was 0.0051 µM. The values for the IC50 in the series with cMyc protein and against BRD4 (1) [2] were 0.012 µM and 0.14 µM, respectively.
Take `O=C(O)c1ccc2cc(O)ccc2c1` [6-hydroxy-2-naphthoic acid]: in the series “pKa determination”, the pKa turned out to be 4.3.
Take `COc1nnc2ccc(N3CCC(c4ccc(OCCN5[C@H](C)CN(C(C)=O)C[C@@H]5C)cc4)CC3)nn12` [Example 2, 1-((3S,5R)-4-(2-(4-(1-(3-methoxy-[1,2,4]triazolo[4,3-b]pyridazin-6-yl)piperidin-4-yl)phenoxy)ethyl)-3,5-dimethylpiperazin-1-yl)ethanone]: the Kd is 0.29 µM on BRD4 (2); 0.083 µM on BRD2 (1); 0.35 µM at BRD2 (2); 0.057 µM on BRD3 (1); 0.92 µM at BRD3 (2); 0.035 µM at BRDT (1). Further, the Kd on BRDT (2) was found to be 1.1 µM; at BRD4 (1) [1], 0.026 µM. The GI50 with MM1.S cells is less than 0.002 µM. The figures for the IC50 in the series with cMyc protein and against BRD4 (1) [2] were less than 0.002 µM and 0.035 µM, respectively.

These data come from patent US10407432B2, “[1,2,4]triazolo[4,3-B]pyridazines for use in the treatment of proliferative diseases” (AstraZeneca AB, priority 2014, dated 2019).
